From patent US20070117770A1, “Human ribosomal DNA (rDNA) and ribosomal RNA (rRNA) nucleic acids and uses thereof” (Cylene Pharmaceuticals, Inc., priority 2005, published 2007)

Experiments:
Test in all cases: Protein kinase inhibition assay
Assay type in all cases: biochemical
LKB1(h) = LKB1(h) (Homo sapiens, UniProt Q15831); settings: read-out: percent residual activity of LKB1(h)
Experimental: (§1) Certain compounds were tested for activity in protein kinase inhibition assays. All substrates were dissolved and diluted to working stocks in de-ionized water, apart from histone H1 (10× working stock in 20 mM MOPS pH 7.0), PDKtide (10× working stock in 50 mM Tris pH 7.0) ATF2 (which is typically stored at a 20× working stock in 50 mM Tris pH 7.5, 150 mM NaCl, 0.1 mM EGTA, 0.03% Brij-35, 50% glycerol, 1 mM benzamidine, 0.2 mM PMSF and 0.1% R-mercaptoethanol), KKLNRTLSFAEPG (SEQ ID NO:203) and RRRLSFAEPG (SEQ ID NO:204) (50 mM HEPES pH 7.4) and GGEEEEYFELVKKKK (SEQ ID NO:205) (20 mM MOPS pH 7.0). All kinases were pre-diluted to a 10× working concentration prior to addition into the assay. The composition of the dilution buffer for each kinase is detailed below.

PAK3(h) = PAK3(h) (Homo sapiens, UniProt O75914); settings: read-out: percent residual activity of PAK3(h)
Chain of PAK3(h) (O75914 whole entry): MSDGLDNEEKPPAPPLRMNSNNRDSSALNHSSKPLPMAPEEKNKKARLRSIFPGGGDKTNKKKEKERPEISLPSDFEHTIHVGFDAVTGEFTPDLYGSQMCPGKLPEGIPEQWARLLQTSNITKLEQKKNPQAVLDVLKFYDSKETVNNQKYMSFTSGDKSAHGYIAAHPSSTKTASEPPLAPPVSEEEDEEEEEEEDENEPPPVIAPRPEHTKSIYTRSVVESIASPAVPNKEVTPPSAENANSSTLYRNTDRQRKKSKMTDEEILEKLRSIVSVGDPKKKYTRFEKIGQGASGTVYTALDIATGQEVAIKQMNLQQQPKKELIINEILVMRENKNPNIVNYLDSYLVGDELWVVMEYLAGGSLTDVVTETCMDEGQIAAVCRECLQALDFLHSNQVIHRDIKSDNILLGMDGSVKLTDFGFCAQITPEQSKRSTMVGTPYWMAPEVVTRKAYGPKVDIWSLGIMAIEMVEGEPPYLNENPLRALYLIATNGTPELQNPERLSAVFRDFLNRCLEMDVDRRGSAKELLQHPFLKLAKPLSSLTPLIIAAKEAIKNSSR
Experimental: as §1

CK1γ3(h) = CK1γ3(h) (Homo sapiens, UniProt Q9Y6M4); settings: read-out: percent residual activity of CK1γ3(h)
Experimental: as §1

MSSK1(h) = MSSK1(h) (Homo sapiens, UniProt Q9UPE1); settings: read-out: percent residual activity of MSSK1(h)
Experimental: as §1

NEK11(h) = NEK11(h) (Homo sapiens, UniProt Q8NG66); settings: read-out: percent residual activity of NEK11(h)
Experimental: as §1

CaMKIIγ(h) = CaMKIIγ(h) (Homo sapiens, UniProt Q13555); settings: read-out: percent residual activity of CaMKIIγ(h)
Experimental: as §1

EphA8(h) = EphA8(h) (Homo sapiens, UniProt P29322); settings: read-out: percent residual activity of EphA8(h)
Experimental: as §1

DMPK(h) = DMPK(h) (Homo sapiens, UniProt Q09013); settings: read-out: percent residual activity of DMPK(h)
Chain of DMPK(h) (Q09013 whole entry): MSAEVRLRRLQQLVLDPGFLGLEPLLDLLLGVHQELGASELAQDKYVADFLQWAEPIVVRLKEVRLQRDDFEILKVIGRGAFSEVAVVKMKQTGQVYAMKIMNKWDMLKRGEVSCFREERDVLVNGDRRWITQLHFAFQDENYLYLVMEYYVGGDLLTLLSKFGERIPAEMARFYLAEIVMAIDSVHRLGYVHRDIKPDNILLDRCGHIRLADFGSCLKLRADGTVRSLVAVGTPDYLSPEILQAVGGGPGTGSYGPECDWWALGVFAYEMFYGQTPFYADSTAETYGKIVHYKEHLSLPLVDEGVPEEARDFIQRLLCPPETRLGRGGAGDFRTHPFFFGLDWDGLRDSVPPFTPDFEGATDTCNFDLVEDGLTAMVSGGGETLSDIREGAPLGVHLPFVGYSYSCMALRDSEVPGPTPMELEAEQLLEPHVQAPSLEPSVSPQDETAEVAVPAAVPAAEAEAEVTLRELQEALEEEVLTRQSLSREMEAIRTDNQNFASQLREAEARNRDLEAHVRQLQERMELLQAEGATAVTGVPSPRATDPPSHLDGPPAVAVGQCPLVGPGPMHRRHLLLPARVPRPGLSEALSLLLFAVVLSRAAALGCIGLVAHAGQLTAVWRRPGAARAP
Experimental: as §1

CLK3(h) = CLK3(h) (Homo sapiens, UniProt P49761); settings: read-out: percent residual activity of CLK3(h)
Experimental: as §1

CK2α2(h) = CK2α2(h) (Homo sapiens, UniProt P19784); settings: read-out: percent residual activity of CK2α2(h)
Experimental: as §1

CaMKIIδ(h) = CaMKIIδ(h) (Homo sapiens, UniProt Q13557); settings: read-out: percent residual activity of CaMKIIδ(h)
Experimental: as §1

Mer(h) = Mer(h) (Homo sapiens, UniProt Q12866); settings: read-out: percent residual activity of Mer(h)
Experimental: as §1

GRK5(h) = GRK5(h) (Homo sapiens, UniProt P34947); settings: read-out: percent residual activity of GRK5(h)
Experimental: as §1

cKit(D816H)(h) = cKit(D816H)(h) (Homo sapiens, UniProt P10721, D816H); settings: read-out: percent residual activity of cKit(D816H)(h)
Experimental: as §1

MELK(h) = MELK(h) (Homo sapiens, UniProt Q14680); settings: read-out: percent residual activity of MELK(h)
Experimental: as §1

Rsk4(h) = Rsk4(h) (Homo sapiens, UniProt Q9UK32); settings: read-out: percent residual activity of Rsk4(h)
Experimental: as §1

EphA7(h) = EphA7(h) (Homo sapiens, UniProt Q15375); settings: read-out: percent residual activity of EphA7(h)
Experimental: as §1

DAPK2(h) = DAPK2(h) (Homo sapiens, UniProt Q9UIK4); settings: read-out: percent residual activity of DAPK2(h)
Experimental: as §1

Flt4(h) = Flt4(h) (Homo sapiens, UniProt P35916); settings: read-out: percent residual activity of Flt4(h)
Chain of Flt4(h) (P35916 25-1363): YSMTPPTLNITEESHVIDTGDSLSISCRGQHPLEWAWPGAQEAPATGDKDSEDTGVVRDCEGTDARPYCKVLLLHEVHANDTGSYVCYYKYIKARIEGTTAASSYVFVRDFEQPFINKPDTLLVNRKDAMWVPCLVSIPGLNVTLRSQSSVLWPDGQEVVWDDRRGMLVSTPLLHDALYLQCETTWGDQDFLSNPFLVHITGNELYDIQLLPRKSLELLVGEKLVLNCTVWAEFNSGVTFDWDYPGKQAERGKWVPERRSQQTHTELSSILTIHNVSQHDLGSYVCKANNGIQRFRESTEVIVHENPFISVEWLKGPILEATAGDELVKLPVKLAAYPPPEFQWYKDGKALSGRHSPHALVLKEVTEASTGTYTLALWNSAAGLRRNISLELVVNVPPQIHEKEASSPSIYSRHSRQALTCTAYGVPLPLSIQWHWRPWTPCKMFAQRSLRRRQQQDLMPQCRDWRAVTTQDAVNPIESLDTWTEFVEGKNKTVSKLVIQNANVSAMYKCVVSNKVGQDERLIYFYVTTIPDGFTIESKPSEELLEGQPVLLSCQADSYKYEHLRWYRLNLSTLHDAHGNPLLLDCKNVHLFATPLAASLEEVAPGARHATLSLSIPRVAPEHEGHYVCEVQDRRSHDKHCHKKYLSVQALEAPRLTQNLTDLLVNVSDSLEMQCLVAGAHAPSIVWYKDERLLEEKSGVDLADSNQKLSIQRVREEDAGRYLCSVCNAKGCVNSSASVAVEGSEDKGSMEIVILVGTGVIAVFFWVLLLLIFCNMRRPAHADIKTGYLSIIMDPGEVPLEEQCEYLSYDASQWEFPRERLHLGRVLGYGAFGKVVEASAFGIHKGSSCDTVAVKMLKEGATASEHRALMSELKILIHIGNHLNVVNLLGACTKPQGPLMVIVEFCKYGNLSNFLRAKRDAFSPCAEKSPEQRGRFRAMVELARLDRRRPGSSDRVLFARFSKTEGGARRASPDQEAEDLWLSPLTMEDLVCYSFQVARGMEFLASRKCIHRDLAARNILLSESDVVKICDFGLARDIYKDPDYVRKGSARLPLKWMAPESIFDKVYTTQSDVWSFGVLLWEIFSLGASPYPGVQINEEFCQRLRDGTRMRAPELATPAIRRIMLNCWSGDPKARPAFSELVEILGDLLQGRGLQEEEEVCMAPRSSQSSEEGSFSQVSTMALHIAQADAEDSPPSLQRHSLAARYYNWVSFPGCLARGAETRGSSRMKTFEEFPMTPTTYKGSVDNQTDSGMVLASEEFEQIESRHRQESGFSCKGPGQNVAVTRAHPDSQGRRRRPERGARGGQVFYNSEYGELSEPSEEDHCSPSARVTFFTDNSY
Experimental: as §1

EGFR(T790M)(h) = EGFR(T790M)(h) (Homo sapiens, UniProt P00533, T790M); settings: read-out: percent residual activity of EGFR(T790M)(h)
Experimental: as §1

HIPK3(h) = HIPK3(h) (Homo sapiens, UniProt Q9H422); settings: read-out: percent residual activity of HIPK3(h)
Experimental: as §1

GRK6(h) = GRK6(h) (Homo sapiens, UniProt P43250); settings: read-out: percent residual activity of GRK6(h)
Experimental: as §1

PTK5(h) = PTK5(h) (Homo sapiens, UniProt P42685); settings: read-out: percent residual activity of PTK5(h)
Chain of PTK5(h) (P42685 whole entry): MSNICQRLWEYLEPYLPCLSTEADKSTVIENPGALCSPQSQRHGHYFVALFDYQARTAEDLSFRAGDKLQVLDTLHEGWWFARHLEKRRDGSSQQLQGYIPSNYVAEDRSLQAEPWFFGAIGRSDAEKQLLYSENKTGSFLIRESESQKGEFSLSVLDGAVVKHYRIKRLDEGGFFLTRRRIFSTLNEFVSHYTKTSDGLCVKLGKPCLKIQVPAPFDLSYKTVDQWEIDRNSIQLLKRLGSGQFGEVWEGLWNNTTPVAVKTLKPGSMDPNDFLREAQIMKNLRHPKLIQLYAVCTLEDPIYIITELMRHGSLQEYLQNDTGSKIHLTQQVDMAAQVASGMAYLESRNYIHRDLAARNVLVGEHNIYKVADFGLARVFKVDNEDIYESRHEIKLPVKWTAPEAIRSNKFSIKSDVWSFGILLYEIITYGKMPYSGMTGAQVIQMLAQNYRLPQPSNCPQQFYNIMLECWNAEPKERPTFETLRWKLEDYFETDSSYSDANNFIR
Experimental: as §1

SAPK2a(T106M)(h) = SAPK2a(T106M)(h) (Homo sapiens, UniProt Q16539, T106M); settings: read-out: percent residual activity of SAPK2a(T106M)(h)
Chain of SAPK2a(T106M)(h) (Q16539 whole entry T106M): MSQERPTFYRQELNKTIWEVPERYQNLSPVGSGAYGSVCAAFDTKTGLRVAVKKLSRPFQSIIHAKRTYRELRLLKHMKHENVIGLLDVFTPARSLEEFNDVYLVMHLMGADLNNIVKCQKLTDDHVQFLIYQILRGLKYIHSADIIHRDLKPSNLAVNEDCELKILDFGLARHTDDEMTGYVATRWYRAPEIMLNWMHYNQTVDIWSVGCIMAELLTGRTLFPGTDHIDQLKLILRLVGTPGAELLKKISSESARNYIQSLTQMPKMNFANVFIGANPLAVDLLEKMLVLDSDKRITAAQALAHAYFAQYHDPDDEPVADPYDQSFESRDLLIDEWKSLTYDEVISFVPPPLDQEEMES
Experimental: as §1

SRPK1(h) = SRPK1(h) (Homo sapiens, UniProt Q96SB4); settings: read-out: percent residual activity of SRPK1(h)
Experimental: as §1

BrSK1(h) = BrSK1(h) (Homo sapiens, UniProt Q8TDC3); settings: read-out: percent residual activity of BrSK1(h)
Experimental: as §1

CK1γ2(h) = CK1γ2(h) (Homo sapiens, UniProt P78368); settings: read-out: percent residual activity of CK1γ2(h)
Chain of CK1γ2(h) (P78368 whole entry): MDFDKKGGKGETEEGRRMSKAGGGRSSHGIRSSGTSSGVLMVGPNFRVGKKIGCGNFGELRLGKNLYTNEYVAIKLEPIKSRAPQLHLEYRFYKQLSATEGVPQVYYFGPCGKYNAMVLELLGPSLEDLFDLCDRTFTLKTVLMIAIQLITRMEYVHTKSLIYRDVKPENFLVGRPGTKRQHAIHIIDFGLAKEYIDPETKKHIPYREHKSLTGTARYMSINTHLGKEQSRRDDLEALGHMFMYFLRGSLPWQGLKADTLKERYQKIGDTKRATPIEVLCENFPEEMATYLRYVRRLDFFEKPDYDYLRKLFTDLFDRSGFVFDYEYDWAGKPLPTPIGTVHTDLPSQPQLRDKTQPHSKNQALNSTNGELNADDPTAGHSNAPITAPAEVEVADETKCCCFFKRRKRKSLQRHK
Experimental: as §1

Chain of LKB1(h) (Q15831 whole entry): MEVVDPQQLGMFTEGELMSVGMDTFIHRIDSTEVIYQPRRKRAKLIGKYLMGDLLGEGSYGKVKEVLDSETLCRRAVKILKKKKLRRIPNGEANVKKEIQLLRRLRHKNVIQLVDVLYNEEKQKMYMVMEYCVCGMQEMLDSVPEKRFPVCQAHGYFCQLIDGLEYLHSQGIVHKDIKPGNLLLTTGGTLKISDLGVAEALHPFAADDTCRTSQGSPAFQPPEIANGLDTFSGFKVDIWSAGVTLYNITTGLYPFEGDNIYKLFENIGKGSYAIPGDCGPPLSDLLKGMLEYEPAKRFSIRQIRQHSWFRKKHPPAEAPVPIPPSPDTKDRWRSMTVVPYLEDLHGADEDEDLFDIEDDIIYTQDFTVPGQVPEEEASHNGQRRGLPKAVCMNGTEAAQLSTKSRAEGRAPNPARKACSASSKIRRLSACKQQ
Chain of LKB1(h) (Q7RTN6 whole entry partner): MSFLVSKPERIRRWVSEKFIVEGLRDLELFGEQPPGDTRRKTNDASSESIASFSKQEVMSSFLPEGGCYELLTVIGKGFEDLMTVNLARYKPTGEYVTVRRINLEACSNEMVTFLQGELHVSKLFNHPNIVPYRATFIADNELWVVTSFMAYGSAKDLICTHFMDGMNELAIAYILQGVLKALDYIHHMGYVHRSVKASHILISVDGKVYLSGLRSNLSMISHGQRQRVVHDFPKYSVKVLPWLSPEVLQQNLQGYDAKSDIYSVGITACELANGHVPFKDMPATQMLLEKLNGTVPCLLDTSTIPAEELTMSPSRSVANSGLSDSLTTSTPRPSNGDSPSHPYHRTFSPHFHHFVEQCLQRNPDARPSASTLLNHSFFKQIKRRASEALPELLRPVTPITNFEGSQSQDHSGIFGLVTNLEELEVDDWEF
Chain of LKB1(h) (Q9Y376 whole entry partner): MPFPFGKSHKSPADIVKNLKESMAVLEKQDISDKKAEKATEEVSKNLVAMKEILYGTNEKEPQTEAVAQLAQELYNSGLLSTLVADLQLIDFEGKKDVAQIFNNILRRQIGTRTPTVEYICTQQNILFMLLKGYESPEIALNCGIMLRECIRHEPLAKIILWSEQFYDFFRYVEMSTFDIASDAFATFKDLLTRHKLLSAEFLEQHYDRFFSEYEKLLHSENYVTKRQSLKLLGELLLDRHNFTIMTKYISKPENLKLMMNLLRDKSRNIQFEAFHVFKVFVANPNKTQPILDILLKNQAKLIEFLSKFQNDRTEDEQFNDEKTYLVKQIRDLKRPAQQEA

SMILES | remaining activity at 2.5 µM (LKB1(h)) [%] | remaining activity at 2.5 µM (PAK3(h)) [%] | remaining activity at 2.5 µM (CK1γ3(h)) [%] | remaining activity at 2.5 µM (MSSK1(h)) [%] | remaining activity at 2.5 µM (NEK11(h)) [%] | remaining activity at 2.5 µM (CaMKIIγ(h)) [%] | remaining activity at 2.5 µM (EphA8(h)) [%] | remaining activity at 2.5 µM (DMPK(h)) [%] | remaining activity at 2.5 µM (CLK3(h)) [%] | remaining activity at 2.5 µM (CK2α2(h)) [%] | remaining activity at 2.5 µM (CaMKIIδ(h)) [%] | remaining activity at 2.5 µM (Mer(h)) [%] | remaining activity at 2.5 µM (GRK5(h)) [%] | remaining activity at 2.5 µM (cKit(D816H)(h)) [%] | remaining activity at 2.5 µM (MELK(h)) [%] | remaining activity at 2.5 µM (Rsk4(h)) [%] | remaining activity at 2.5 µM (EphA7(h)) [%] | remaining activity at 2.5 µM (DAPK2(h)) [%] | remaining activity at 2.5 µM (Flt4(h)) [%] | remaining activity at 2.5 µM (EGFR(T790M)(h)) [%] | other results
CN1CCCC1CCNC(=O)c1cn2c3c(c(N4CCC(c5cnccn5)C4)c(F)cc3c1=O)Oc1cc3ccccc3cc1-2 (stereo not drawn) [Compound A-1] | 98 | 88 | 103 | 41 | 70 | 110 | 100 | 92 | 84 | 115 | 88 | 111 | 95 | 73 | 40 | 69 | 109 | 109 | 70 | 91 | remaining activity at 2.5 µM (HIPK3(h)): 102%; remaining activity at 2.5 µM (GRK6(h)): 90%; remaining activity at 2.5 µM (PTK5(h)): 116%; remaining activity at 2.5 µM (SAPK2a(T106M)(h)): 94%; remaining activity at 2.5 µM (SRPK1(h)): 91%; remaining activity at 2.5 µM (BrSK1(h)): 99%; remaining activity at 2.5 µM (CK1γ2(h)): 96%
CC(=O)N1CCN(c2ccc3c(=O)c(C(=O)NCCN4CCCC4)c4n(C)c5ccccc5n4c3n2)CC1 [Compound B-1] | 101 | 91 | 114 | 107 | 107 | 104 | 100 | 105 | 96 | 116 | 96 | 125 | 99 | 92 | 94 | 94 | 100 | 102 | 103 | 114 | remaining activity at 2.5 µM (HIPK3(h)): 97%; remaining activity at 2.5 µM (GRK6(h)): 83%; remaining activity at 2.5 µM (PTK5(h)): 107%; remaining activity at 2.5 µM (SAPK2a(T106M)(h)): 99%; remaining activity at 2.5 µM (SRPK1(h)): 99%; remaining activity at 2.5 µM (BrSK1(h)): 107%; remaining activity at 2.5 µM (CK1γ2(h)): 103%
